Measured values: US10806741B2, “Treatments for free-living amoebic infections” (Profounda, Inc., priority 2018, dated 2020)

Assays:
[1] = solubility of miltefosine; assay type: physicochemical
Text: The chemical name of miltefosine is 2-[[(hexadecyloxy)hydroxyphosphenyl]oxy]-N,N,N-trimethylethylammonium inner salt, also known as hexadecylphosphocholine, represented by the formula (I). The empirical formula is C21H46NO4P, yielding a molecular weight of 407.57 g/mol.
Thus, according to certain aspects of the presently disclosed invention, the miltefosine may be administered as an oral formulation that is a liquid, such as included in a liquid capsule that may be swallowed, or as a formulation that a patient may drink. The miltefosine may be applied directly to body tissues such as skin or cornea. Alternatively, the miltefosine may be formulated as a solution that may be administered intravenously, such as formulated in a sterile saline solution.

Acanthamoeba [2] = assay: patients with Acanthamoeba keratitis treated with systemically administered (oral) miltefosine; assay type: in vivo, human
Text: Such infections have typically been hard to treat as the standard topical treatments generally don't permeate through the various tissue layers to the cysts of the amoeba. […] Previous treatment protocols for Acanthamoeba keratitis have only included topically applied agents such as biocides, and it is not clear from reported results whether cyst reduction was present at the end of these treatment protocols. Moreover, prior to 1996, every patient diagnosed with Acanthamoeba keratitis eventually lost the infected eye.
Since AK is commonly misdiagnosed, the stage of the disease when it is successfully identified varies greatly. […] A major advantage of the presently disclosed methods is that such patients could receive steroids after surgery while also receiving either or both of the systemic and topical formulations of miltefosine, and optional additional second agents.
Medication was discontinued for one week, during which time the patient experienced renewed symptoms.

Acanthamoeba [3] = conditions: topical administration, 160 μM, 28 days treatment; hamsters exposed to Acanthamoeba for 5 days; cited from earlier work
Naegleria fowleri [4] = conditions: Mexico, Arkansas, and Florida patients; cited from earlier work
Naegleria fowleri [5] = conditions: Naegleria fowleri in the laboratory; cited from earlier work
[6] = in vivo; cited from earlier work

With “2-[[(hexadecyloxy)hydroxyphosphenyl]oxy]-N,N,N-trimethylethylammonium inner salt [miltefosine]” the solubility ([1]; aqueous solutions) was “freely soluble”, the solubility ([1]; water, 0.1 N HCl or NaOH, methanol, and ethanol) was “freely soluble” and the “efficacy against Acanthamoeba keratitis, active feeding amoeba and cysts in the eyes” value (Acanthamoeba [2]; oral formulation, over eighty patients, more than a third treated for at least two months) was “effective to treat Acanthamoeba keratitis and was able to kill both active feeding amoeba and cysts in the eyes”. The “outcome of case study (AK infection)” value (Acanthamoeba [2]; patient, oral 50 mg TID just over a month, then 50 mg BID for an additional two months, with short course of oral steroids) was “clear the AK infection”, the “complete cure of hamsters” value (Acanthamoeba [3]) was 85% and the “survival of PAM patients” value (Naegleria fowleri [4]) was “survived”. For the same substance, the amoeba-killing activity (Naegleria fowleri [5]) was “amoeba-killing activity” and the half-life [6] was “long half-life”.
